Columns and labels:
[1] = tested on: Vero cells; conditions: chlorhexidine at 0.002%; known from reference [12]; cited from earlier work
[2] = tested on: HSV-1 virus; conditions: in vitro, vero cells; cited from earlier work
[3] = tested on: Herpes simplex virus; conditions: topically applied on infected skin, animal studies; cited from earlier work
[4] = tested on: Herpes Simplex Type 1 virus; assay: Antiviral activity on HSV type 1 in Vero cells, cell viability by MTS, viral inhibition calculated; type: cell-based; conditions: tested at 0.0005, 0.001 and 0.002%, HSV-1 dilutions 10^-2 to 10^-5
Procedure: Vero cells and Herpes Simplex Type 1 virus were used in order to observe the activity of the antiviral gel formulation; which is composed of a mixture of sodium pentaborate pentahydrate chlorhexidine and poloxamer; on Herpes Simplex Type 1 virus. Virus stock dilutions were prepared and used for the analysis. Five different concentrations were prepared from the main stock up to 10^−5 concentration and among these concentrations, the dilution of 10^−1 concentration was cancelled since no viable cell was observed. The other antiviral analyses were made at four different concentration values ranging from 10^−2 to 10^−5. Chlorhexidine was applied at three different concentrations: 0.0005-0.001-0.002%.

[H]/N=C(\N/C(=N/[H])NCCCCCCNC(=N)NC(=N)Nc1ccc(Cl)cc1)Nc1ccc(Cl)cc1 [chlorhexidine]
cytotoxic effect [1]: cytotoxic effect
inhibition of viral replication of HSV-1 [2]: inhibits viral replication
inhibition of virus proliferation and lesion formation [3]: inhibits the virus from proliferating and forming lesions
concentration of chlorhexidine alone at which the best antiviral activity was observed [4]: 0.002%
